{"source": "patent US20100130579A1", "about": "“CANCER THERAPY” (Georgetown University, priority 2006, published 2010)", "key": {"cyclin B1": {"test_system": "cyclin B1", "assay": "RT-PCR of cyclin B1 mRNA in prostate cancer cells", "format": "cell-based, human", "conditions": "PC3 or LNCaP cells, mahanine treatment", "experimental": "(§1) FIG. 5. RASSF1A down-regulates cyclin D1 expression in prostate cancer cells but not other cyclins. […] RNA was extracted, and RT-PCR assays were performed to detect RASSF1A, cyclin A1, B1, D1, E1 and GAPDH mRNAs. Representative photograph from an experiment that was repeated thrice. Quantitative estimations of relative levels of cyclin D1 and RASSF1A mRNAs were determined by densitometric measurements of RT-PCR gels from three independent experiments after normalization with GAPDH.\n(§2) Genes of interest were amplified using 500 ng of total RNA reverse-transcribed to cDNA using a Superscript II kit (Invitrogen) with random hexamers. Human-specific primers were designed using the Primer Quest program and purchased from Integrated DNA Technologies, Inc (Coralville, Iowa). […] After amplification, PCR products were separated on 1.5% agarose gels and visualized by ethidium bromide fluorescence using the Fuji LAS-1000 Imager. […] Band intensities were quantified by using ImageJ software (NIH, Bethesda, Md.)."}, "LNCaP and PC3 cells [1]": {"test_system": "LNCaP and PC3 cells", "conditions": "androgen-responsive LNCaP and androgen-independent PC3 cells; cited from earlier work"}, "cyclin E1": {"test_system": "cyclin E1", "assay": "RT-PCR of cyclin E1 mRNA in prostate cancer cells", "format": "cell-based, human", "conditions": "PC3 or LNCaP cells, mahanine treatment", "experimental": "as §1, §2"}, "LNCaP cells": {"test_system": "LNCaP cells", "assay": "Flow cytometric cell cycle analysis, LNCaP", "format": "cell-based, human", "conditions": "mahanine 3 days", "experimental": "FIG. 4A-4B. Mahanine arrests prostate cancer cells at G0/G1 phase of cell cycle. To determine if down-regulation of cyclin D1 by mahanine treatments affect cell cycle, PC3 4(A) and LNCaP 4(B) cells were treated with 0, 1 and 2 μg/ml mahanine for 3 days. After treatment, flow cytometric analyses were performed. The percentage of cells in the G0/G1, S and G2/M-phase of the cell cycle were shown on right. FACS analysis of PC3 and LNCaP prostate cancer cells with vehicle or 2 μg/ml mahanine are shown in the left panel. Values are the mean from two independent experiments in duplicates.\nSince cyclin D1 regulates cell cycle progression at the G0/G1 phase, Aplicants examined the cell cycle profile of PC3 and LNCaP cells in the presence of various concentrations of mahanine."}, "RASSF1A": {"test_system": "RASSF1A", "assay": "RT-PCR of RASSF1A expression in cancer cells", "format": "cell-based, human", "experimental": "FIGS. 1A-1D. Mahanine induces RASSF1A in prostate and other cancer cells. FIG. 1A: Microarray analyses of PC3 cells treated with ([…] (+) or vehicle (−) for 2 days, RNA was extracted and microarray analysis was performed. FIG. 1B: RT-PCR data showing the expression of RASSF1A and GAPDH in untreated normal prostate epithelial cells (PrEC) and human prostate cancer cells (PC3). FIG. 1C: PC3 (left panel) and LNCaP (right panel) cells were treated with 0, 1, 2 and 3 μg/ml mahanine for 3 days. RNA was extracted, and RT-PCR assays were performed to detect RASSF1A and GAPDH expression. Representative photograph from an experiment that was repeated thrice. Quantitative estimations of relative levels of RASSF1A mRNAs (lower panels) were determined by densitometric measurements of RT-PCR gels from three independent experiments after normalization with GAPDH. […]\nGenes of interest were amplified using 500 ng of total RNA reverse-transcribed to cDNA using a Superscript II kit (Invitrogen) with random hexamers. […] After amplification, PCR products were separated on 1.5% agarose gels and visualized by ethidium bromide fluorescence using the Fuji LAS-1000 Imager. […] Band intensities were quantified by using ImageJ software (NIH, Bethesda, Md.)."}, "LNCaP and PC3 cells [2]": {"test_system": "LNCaP and PC3 cells", "conditions": "3 μg/ml; cited from earlier work"}}, "data": [{"smiles": "CC(C)=CCC[C@@]1(C)C=Cc2c(c(C)cc3c2[nH]c2cc(O)ccc23)O1", "note": "[mahanine]", "values": [{"measurement": "cyclin B1 expression (RT-PCR)", "setting": "cyclin B1", "value": "did not alter the expression"}, {"measurement": "growth of prostate cancer cells", "setting": "LNCaP and PC3 cells [1]", "value": "inhibits growth in a dose-dependent manner"}, {"measurement": "cyclin E1 expression (RT-PCR)", "setting": "cyclin E1", "value": "did not alter the expression"}, {"measurement": "cells in S-phase", "setting": "LNCaP cells; decreased from 25.6% (control)", "value": 6.1, "unit": "%"}, {"measurement": "cells in G0/G1 phase", "setting": "LNCaP cells; increased from 63.7% (control)", "value": 90.7, "unit": "%"}, {"measurement": "induction of RASSF1A expression (RT-PCR)", "setting": "RASSF1A; A431, A549, ASPC-1, HT-29, MCF7 and SKOV-3 cells, 2 and 3 μg/ml, 2 days", "value": "induced RASSF1A expression"}, {"measurement": "induction of RASSF1A gene expression (RT-PCR)", "setting": "RASSF1A; PC3 cells, 1, 2 and 3 μg/ml, 3 days, dose-dependent", "value": "20-80 folds"}, {"measurement": "apoptosis", "setting": "LNCaP and PC3 cells [2]", "value": "induces apoptosis"}]}]}
